Data: patent US9655887B2, “Pharmaceutical composition and the use thereof, and application regime of said pharmaceutical composition for on-demand contraception” (BAYER PHARMA AKTIENGESELLSCHAFT, priority 2013, dated 2017)

Molecular target: EP2 subtype of the human PGE2 receptor (hEP2 receptor) (Homo sapiens, UniProt P43116)
Assay: cAMP antagonism test, human prostaglandin E2 (subtype EP2) receptor signal
Format: cell-based
From the text: 1. Detection of Antagonism to the Human Prostaglandin E2 (Subtype EP2) Receptor Signal
The binding of PGE2 to the EP2 subtype of the human PGE2 receptor induces the activation of membrane-located adenylate cyclases and leads to the formation of cAMP. In the presence of the phosphodiesterase inhibitor IBMX, the cAMP accumulated owing to this stimulation and released by cell lysis is used in a competitive detection method. In this test, the cAMP present in the lysate competes with a fluorescence-labelled cAMP (cAMP-d2) for binding to an Eu cryptate-labelled anti-cAMP antibody.
In the absence of cellular cAMP, a maximal signal is produced, which is attributable to the binding of this cAMP-d2 molecule to the antibody. After excitation of the […] at 337 nm, there is a fluorescence resonance energy transfer (FRET) to the Eu cryptate molecules of the anti-cAMP antibody (labelled therewith), followed by a long-lasting emission signal at 665 nm (and at […]). Both signals are measured in a suitable measurement instrument with a time delay, i.e. after decay of the background fluorescence. Any increase in the low FRET signal caused by prostaglandin E2 administration (measured as well ratio change=emission665nm/emission620nm*10000) indicates the action of antagonists.
1.2.1. Test for Antagonism (Data Per Well of a 384-Well Plate):
To a test plate with the substance solutions already added (0.05 μl; 100% DMSO, concentration range from 0.8 nM-16.5 nM) were added 4 μl of a cAMP-d2/cell suspension (625000 cells/ml). After a 20-minute preincubation at room temperature (RT), 2 μl of a 3×PGE2 solution (1.5 nM, in PBS-IBMX) were added and incubated in the presence of the agonist for a further 60 mins at RT (volume: […]). Next the reaction was stopped by addition of 2 μl of lysis buffer and incubated for a further 20 mins at RT before the actual measurement (volume: ˜8 μl).

EP2 subtype of the human PGE2 receptor (hEP2 receptor), sequence (P43116 whole entry): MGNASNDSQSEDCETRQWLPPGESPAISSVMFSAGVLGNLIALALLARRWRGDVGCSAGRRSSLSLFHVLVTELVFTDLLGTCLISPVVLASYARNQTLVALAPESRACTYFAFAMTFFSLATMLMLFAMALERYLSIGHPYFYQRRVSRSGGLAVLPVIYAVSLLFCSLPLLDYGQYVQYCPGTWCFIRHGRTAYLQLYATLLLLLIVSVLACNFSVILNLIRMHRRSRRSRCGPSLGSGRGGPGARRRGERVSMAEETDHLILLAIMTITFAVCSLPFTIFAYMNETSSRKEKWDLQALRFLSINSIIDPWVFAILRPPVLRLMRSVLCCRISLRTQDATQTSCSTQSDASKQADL

Cc1c(C(=O)NCCOC(F)(F)F)ccc2nn(CC3CCN(C(=O)c4ccc(Cl)cc4)CC3)cc12 [Example E77, 2-{[1-(4-chlorobenzoyl)piperidin-4-yl]methyl}-4-methyl-N-[2-(trifluoromethoxy)ethyl]-2H-indazole-5-carboxamide]
IC50: > 50 nM

Cc1c(C(=O)NCCOC(F)(F)F)ccc2nn(CC3CCN(C(=O)c4ccc(Oc5ccc(F)cc5)cc4)CC3)cc12 [Example E78, 2-({1-[4-(4-fluorophenoxy)benzoyl]piperidin-4-yl}methyl)-4-methyl-N-[2-(trifluoro-methoxy)ethyl]-2H-indazole-5-carboxamide]
IC50: > 50 nM

Cc1c(C(=O)NCCOC(F)(F)F)ccc2nn(CC3CCN(C(=O)c4ccc(-c5ccc(F)cc5)cc4)CC3)cc12 [Example E79, 2-({1-[(4′-fluorobiphenyl-4-yl)carbonyl]piperidin-4-yl}methyl)-4-methyl-N-[2-(trifluoromethoxy)ethyl]-2H-indazole-5-carboxamide]
IC50: > 50 nM

Cc1c(C(=O)NCCOC(F)(F)F)ccc2nn(CC3CCN(C(=O)c4ccc(Oc5ccc(C(F)(F)F)cc5)cc4)CC3)cc12 [Example E80, 4-methyl-N-[2-(trifluoromethoxy)ethyl]-2-[(1-{4-[4-(trifluoromethyl)phenoxy]-benzoyl}piperidin-4-yl)methyl]-2H-indazole-5-carboxamide]
IC50: > 50 nM

Cc1c(C(=O)NCCOC(C)(C)C)ccc2nn(CC3CCN(C(=O)c4ccc(Cl)cc4)CC3)cc12 [Example E81, N-(2-tert-butoxyethyl)-2-{[1-(4-chlorobenzoyl)piperidin-4-yl]methyl}-4-methyl-2H-indazole-5-carboxamide]
IC50: > 50 nM

Cc1c(C(=O)NCCOC(C)(C)C)ccc2nn(CC3CCN(C(=O)c4ccc(Oc5ccc(F)cc5)cc4)CC3)cc12 [Example E82, N-(2-tert-butoxyethyl)-2-({1-[4-(4-fluorophenoxy)benzoyl]piperidin-4-yl}methyl)-4-methyl-2H-indazole-5-carboxamide]
IC50: > 50 nM

Cc1c(C(=O)NCCOC(C)(C)C)ccc2nn(CC3CCN(C(=O)c4ccc(-c5ccc(F)cc5)cc4)CC3)cc12 [Example E83, N-(2-tert-butoxyethyl)-2-({1-[(4′-fluorobiphenyl-4-yl)carbonyl]piperidin-4-yl}methyl)-4-methyl-2H-indazole-5-carboxamide]
IC50: > 50 nM

Cc1c(C(=O)NCCOC(C)(C)C)ccc2nn(CC3CCN(C(=O)c4ccc(Oc5ccc(C(F)(F)F)cc5)cc4)CC3)cc12 [Example E84, N-(2-tert-butoxyethyl)-4-methyl-2-[(1-{4-[4-(trifluoromethyl)phenoxy]benzoyl}-piperidin-4-yl)methyl]-2H-indazole-5-carboxamide]
IC50: > 50 nM

[2H]C([2H])([2H])OC([2H])([2H])C([2H])([2H])NC(=O)c1ccc2nn(CC3CCN(C(=O)c4ccc(Cl)cc4)CC3)cc2c1C [Example E85, 2-{[1-(4-chlorobenzoyl)piperidin-4-yl]methyl}-4-methyl-N-{2-[(^2H3)methyloxy]-(^2H4)ethyl}-2H-indazole-5-carboxamide]
IC50: > 50 nM

[2H]C([2H])([2H])OC([2H])([2H])C([2H])([2H])NC(=O)c1ccc2nn(CC3CCN(C(=O)c4ccc(Oc5ccc(F)cc5)cc4)CC3)cc2c1C [Example E86, 2-({1-[4-(4-fluorophenoxy)benzoyl]piperidin-4-yl}methyl)-4-methyl-N-{2-[(^2H3)methyloxy](^2H4)ethyl}-2H-indazole-5-carboxamide]
IC50: > 50 nM

COCCNC(=O)c1ccc2nn(CC3CN(C(=O)c4ccc(Cl)cc4)C3)cc2c1C [Example E87, 2-{[1-(4-chlorobenzoyl)azetidin-3-yl]methyl}-N-(2-methoxyethyl)-4-methyl-2H-indazole-5-carboxamide]
IC50: > 50 nM

COCCNC(=O)c1ccc2nn(CC3CN(C(=O)c4ccc(SC(F)(F)F)cc4)C3)cc2c1C [Example E88, N-(2-methoxyethyl)-4-methyl-2-[(1-{4-[(trifluoromethyl)sulphanyl]benzoyl}azetidin-3-yl)methyl]-2H-indazole-5-carboxamide]
IC50: > 50 nM

COCCNC(=O)c1ccc2nn(CC3CN(C(=O)c4ccc(OC(F)(F)F)cc4)C3)cc2c1C [Example E89, N-(2-methoxyethyl)-4-methyl-2-({1-[4-(trifluoromethoxy)benzoyl]azetidin-3-yl}-methyl)-2H-indazole-5-carboxamide]
IC50: > 50 nM

COCCNC(=O)c1ccc2nn(CC3CN(C(=O)c4ccc(C(F)(F)F)cc4F)C3)cc2c1C [Example E90, 2-({1-[2-fluoro-4-(trifluoromethyl)benzoyl]azetidin-3-yl}methyl)-N-(2-methoxyethyl)-4-methyl-2H-indazole-5-carboxamide]
IC50: > 50 nM

COCCNC(=O)c1ccc2nn(CC3CN(C(=O)c4ccc(Cl)cc4F)C3)cc2c1C [Example E91, 2-{[1-(4-chloro-2-fluorobenzoyl)azetidin-3-yl]methyl}-N-(2-methoxyethyl)-4-methyl-2H-indazole-5-carboxamide]
IC50: > 50 nM

COCCNC(=O)c1ccc2nn(CC3CN(C(=O)c4ccc(C(F)(F)F)c(F)c4)C3)cc2c1C [Example E92, 2-({1-[3-fluoro-4-(trifluoromethyl)benzoyl]azetidin-3-yl}methyl)-N-(2-methoxyethyl)-4-methyl-2H-indazole-5-carboxamide]
IC50: > 50 nM

COCCNC(=O)c1ccc2nn(CC3CN(C(=O)c4ccc(Cl)c(C(F)(F)F)c4)C3)cc2c1C [Example E93, 2-({1-[4-chloro-3-(trifluoromethyl)benzoyl]azetidin-3-yl}methyl)-N-(2-methoxyethyl)-4-methyl-2H-indazole-5-carboxamide]
IC50: > 50 nM

COCCNC(=O)c1ccc2nn(CC3CN(C(=O)c4ccc(C5CC5)cc4)C3)cc2c1C [Example E94, 2-{[1-(4-cyclopropylbenzoyl)azetidin-3-yl]methyl}-N-(2-methoxyethyl)-4-methyl-2H-indazole-5-carboxamide]
IC50: > 50 nM

COCCNC(=O)c1ccc2nn(CC3CN(C(=O)c4ccc(Oc5ccc(C(F)(F)F)cc5)cc4)C3)cc2c1C [Example E95, N-(2-methoxyethyl)-4-methyl-2-[(1-{4-[4-(trifluoromethyl)phenoxy]benzoyl}azetidin-3-yl)methyl]-2H-indazole-5-carboxamide]
IC50: > 50 nM

Cc1c(C(=O)NCCOC2CC2)ccc2nn(CC3CN(C(=O)c4ccc(OC(F)(F)F)cc4)C3)cc12 [Example E100, N-[2-(cyclopropyloxy)ethyl]-4-methyl-2-({1-[4-(trifluoromethoxy)benzoyl]azetidin-3-yl}methyl)-2H-indazole-5-carboxamide]
IC50: > 50 nM

Cc1c(C(=O)NCCOC2CCC2)ccc2nn(CC3CN(C(=O)c4ccc(OC(F)(F)F)cc4)C3)cc12 [Example E101, N-[2-(cyclobutyloxy)ethyl]-4-methyl-2-({1-[4-(trifluoromethoxy)benzoyl]azetidin-3-yl}methyl)-2H-indazole-5-carboxamide]
IC50: > 50 nM

Cc1c(C(=O)NCCOCC2CC2)ccc2nn(CC3CN(C(=O)c4ccc(Cl)cc4)C3)cc12 [Example E102, 2-{[1-(4-chlorobenzoyl)azetidin-3-yl]methyl}-N-[2-(cyclopropylmethoxy)ethyl]-4-methyl-2H-indazole-5-carboxamide]
IC50: > 50 nM

Cc1c(C(=O)NCCOCC2CC2)ccc2nn(CC3CN(C(=O)c4ccc(Oc5ccc(F)cc5)cc4)C3)cc12 [Example E103, N-[2-(cyclopropylmethoxy)ethyl]-2-({1-[4-(4-fluorophenoxy)benzoyl]azetidin-3-yl}-methyl)-4-methyl-2H-indazole-5-carboxamide]
IC50: > 50 nM

Cc1ccc(C(=O)N2CC(Cn3cc4c(C)c(C(=O)NCCOCC5CC5)ccc4n3)C2)cc1 [Example E104, N-[2-(cyclopropylmethoxy)ethyl]-4-methyl-2-{[1-(4-methylbenzoyl)azetidin-3-yl]-methyl}-2H-indazole-5-carboxamide]
IC50: > 50 nM

Cc1c(C(=O)NCCOC(F)(F)F)ccc2nn(CC3CN(C(=O)c4ccc(Cl)cc4)C3)cc12 [Example E105, 2-{[1-(4-chlorobenzoyl)azetidin-3-yl]methyl}-4-methyl-N-[2-(trifluoromethoxy)ethyl]-2H-indazole-5-carboxamide]
IC50: > 50 nM

Cc1c(C(=O)NCCOCC2CC2)ccc2nn(CC3CN(C(=O)c4ccc(-c5ccc(F)cc5)cc4)C3)cc12 [Example E107, N-[2-(cyclopropylmethoxy)ethyl]-2-({1-[(4′-fluorobiphenyl-4-yl)carbonyl]azetidin-3-yl}methyl)-4-methyl-2H-indazole-5-carboxamide]
IC50: > 50 nM

COCCNC(=O)c1ccc2nn(CC3CN(C(=O)c4ccc(-c5ccc(F)cc5)cc4)C3)cc2c1C [Example E108, 2-({1-[(4′-fluorobiphenyl-4-yl)carbonyl]azetidin-3-yl}methyl)-N-(2-methoxyethyl)-4-methyl-2H-indazole-5-carboxamide]
IC50: > 50 nM
